# Source: patent publication US10406120B2, “Methods and compositions for treating kidney disorders” (Golden Biotechnology Corporation, priority 2013, dated 2019)
# Legend:
# [1] = system: NAD(P)H oxidase subunit p47^phox; test: FSGS model: Western blot of cytosolic p47^phox in kidney; assay type: in vivo, BALB/c mice; settings: FSGS mice, day 14 to day 21, vs control FSGS mice
# Method: (§1) Experiments described herein were performed on 8-week-old female BALB/c mice. The FSGS mice were injected intravenously with a single dose of adriamycin (0.1 mg/10 g body weight). The mice were given Compound 1 six hours before adriamycin injection by gavage daily till sacrifice. BALB/c mice intraperitoneal injected with normal saline were used as normal controls, while ASLN mice given vehicle (corn oil) by gavage were used as disease controls. Mice were killed at day 7, 14, or 21 after disease induction, and spleen, renal cortical tissue, and blood samples collected and stored appropriately until analysis. All animal experiments were performed with the ethical approval of the Institutional Animal Care and Use Committee of The National Defense Medical Center, Taiwan and performed according to the ethical rules in the NIH Guide for the Care and Use of Laboratory Animals.
# The preparation of cytoplasmic and nuclear proteins of renal tissues was extracted using the Nuclear Extract Kit (Active Motif, Tokyo, Japan) according to the manufacturer's instructions. Target proteins in the cytoplasmic and/or nuclear fractions of kidney tissue were measured by Western blot analysis using rabbit antibodies against mouse Nrf2, or p47^phox (Santa Cruz). […]
# [2] = system: splenocytes; test: AcP-IgAN model: flow cytometry of T cell activation in splenocytes; assay type: in vivo, B cell-deficient mice; settings: AcP-IgAN mice
# Method: (§2) B cell-deficient mice (B6.129S2-Igh-6tm1Cgn/J) were obtained from the Academia Sinica (Professor John T. Kung, Institute of Molecular Biology), and maintained at the animal center of the National Defense Medical Center, Taipei, Taiwan. AcP-IgAN was induced in the mice by daily injection of purified IgA anti-phosphorylcholine antibodies and pneumococcal C-polysaccharide (PnC) as described previously (Chao, et al., Kidney Int. 70:283-297; 2006). All animal experiments were performed with the approval of the Institutional Animal Care and Use Committee of The National Defense Medical Center, Taiwan, and were consistent with the NIH Guide for the Care and Use of Laboratory Animals.
# Splenocytes from the mice were treated with Tris-buffered ammonium chloride to eliminate erythrocytes, washed, resuspended in RPMI 1640 supplemented with 10% fetal calf serum, HEPES buffer, L-glutamine, and penicillin/streptomycin (all from Invitrogen). The cells were stained with either surface marker for T or B cell activation. FITC-conjugated anti-mouse CD3, CD4, CD8, or CD19 (B cell) antibodies and phycoerythrin (PE)-conjugated anti-mouse CD69 antibodies (all from BD Biosciences) were analyzed with FACSCalibur (BD Biosciences).
# [3] = system: NO; test: FSGS model: NO determination; assay type: in vivo, BALB/c mice; settings: FSGS mice
# Method: as §1
# NO levels in serum were detected with NO Detection kit (iNtRON Biotechnology, Seongnam, Korea), based on diazotization (Griess method), according to the manufacturer's instructions.
# [4] = system: collagen I, III, and IV; test: FSGS model: renal collagen accumulation (IHC); assay type: in vivo, BALB/c mice; settings: FSGS mice
# Method: as §1
# (§3) For IHC, formalin-fixed and paraffin-embedded renal sections were prepared and incubated with primary antibodies against mouse Desmin (Lab Vision, CA, USA), CD3 (pan-T cell; Serotec, N.C., USA), F4/80 (monocytes/macrophages; Serotec), IL-6 (R&D Systems, MN, USA), NF-κB p65 (Cell Signaling Technology, MA, USA), collagen I, III, and IV (Southern Biotech, AL, USA), or TGF-β1 (Santa Cruz Biotechnology, CA, USA), biotinylated second antibodies (Dako, Glostrup, Denmark), and avidin-biotin-peroxidase complex (Dako). Semi-quantitative evaluation of staining was performed.
# [5] = system: NF-κB p65; test: FSGS model: renal NF-κB activation (IHC, ELISA); assay type: in vivo, BALB/c mice; settings: FSGS mice
# Method: as §1, §3
# Nuclear proteins were extracted using a nuclear extract kit (Active Motif, Japan). Phospho-NF-κB p65 and nuclear factor-erythroid-2-related factor 2 (NrF2) were measured in renal tissue nuclear protein extracts using Trans-AM ELISA assay kits (Active Motif), according to the manufacturer's instructions. Renal cytosolic protein extracts using RIPA buffer (Cell signaling). Cytosolic glutathione peroxidase (GPx) (Cayman, Mich.) and cytosolic heme oxygenase-1 (HO-1) (Enzo Life Sciences, NY) were measured using commercial ELISA kits according to the manufacturer's instructions. Both were expressed relative to the protein concentration in the lysate.
# [6] = system: IL-1beta; test: AcP-IgAN model: renal IL-1beta mRNA; assay type: in vivo, B cell-deficient mice
# Method: as §2
# Total cortical kidney RNA was extracted with TriZOL reagents (Invitrogen) from cortical tissue of the kidney. For first-strand cDNA synthesis, 1.5 μg of total RNA was used in a single-round reverse transcriptase reaction. The reaction mixture consisted of 0.9 μl of Oligo (dT) 12 to 18 primer, 1.0 mM deoxyribonucleotide triphosphate (dNTP), 1 μl first strand buffer, 0.4 mM dithiothreitol, 80 U of RNaseout recombinant ribonuclease inhibitor, and 300 U of superscript II RNase H (Invitrogen). Real-time PCR was performed on an ABI Prism 7700 Sequence Detection System (Applied Biosystems, CA). All of the probes and primers were Assays-on-Demand Gene expression products (Applied Biosystems). […]
# [7] = system: desmin; test: FSGS model: podocyte injury, desmin IHC; assay type: in vivo, BALB/c mice; settings: FSGS mice
# Method: as §1, with “All animal experiments were performed with the ethical approval of the Institutional Animal Care and Use Committee of The National Defense Medical Center, Taiwan and performed according to the ethical rules in the NIH Guide for the Care and Use of Laboratory Animals.” left out
# as §3
# [8] = day 3, vs control AcP-IgAN mice
# [9] = day 14 to day 21, vs control FSGS mice
compound,measurement,setting,value
"COC1=C(OC)[C@H](O)[C@H](C/C=C(\C)CC/C=C(\C)CCC=C(C)C)[C@@H](C)C1=O [Compound 1, Antroquinonol]",protein levels of NAD(P)H oxidase subunit p47^phox in kidney (increase in FSGS),[1],abolished
same,percentage of CD3^+/CD69^+ T cells in splenocytes,[2]; [8],significant reduction
same,percentage of CD4^+/CD69^+ T cells in splenocytes,[2]; [8],no significant difference
same,percentage of CD8^+/CD69^+ T cells in splenocytes,[2]; [8],no significant difference
same,"percentage of each of the three subtypes of T cells (CD3^+/CD69^+, CD4^+/CD69^+, CD8^+/CD69^+)",[2]; day 28,no different from that of normal controls
same,urine levels of NO,"[3]; day 7, among normal control, FSGS+vehicle and FSGS+antroq mice",no detectable difference
same,serum NO levels,"[3]; day 7 to day 21, vs control FSGS mice",significantly suppressed
same,urine NO levels,[3]; [9],effectively blunted
same,renal expression of collagen I (IHC),[4]; [9],significant suppression
same,renal expression of collagen IV (IHC),[4]; [9],significant suppression
same,renal expression of collagen III (IHC),"[4]; day 21, vs control FSGS mice",significant suppression
same,"nuclear protein expression of NF-κB p65 (ELISA, renal nuclear extracts)",[5]; day 7,no significant difference
same,"nuclear protein expression of NF-κB p65 (ELISA, renal nuclear extracts)",[5]; day 14,slightly blocked
same,"NF-κB activation, nuclear NF-κB p65 expression (IHC)","[5]; day 14 and day 21, vs control FSGS mice",markedly inhibited
same,"nuclear protein expression of NF-κB p65 (ELISA, renal nuclear extracts)",[5]; day 21,significantly inhibited
same,renal mRNA levels of IL-1beta (elevation),"[6]; AcP-IgAN mice, day 28, vs control AcP-IgAN mice",significantly inhibited
same,renal IL-1beta mRNA expression,"[6]; all mice, day 3",no detectable increase
same,expression of desmin (IHC),"[7]; day 21, compared to normal control mice",mild desmin expression levels
same,expression of desmin (IHC),"[7]; days 14 and 21, vs control FSGS mice",significantly reduced
